The target in data set [1] is T1, Pendrin (Homo sapiens, UniProt O43511).
T1 sequence (O43511 whole entry): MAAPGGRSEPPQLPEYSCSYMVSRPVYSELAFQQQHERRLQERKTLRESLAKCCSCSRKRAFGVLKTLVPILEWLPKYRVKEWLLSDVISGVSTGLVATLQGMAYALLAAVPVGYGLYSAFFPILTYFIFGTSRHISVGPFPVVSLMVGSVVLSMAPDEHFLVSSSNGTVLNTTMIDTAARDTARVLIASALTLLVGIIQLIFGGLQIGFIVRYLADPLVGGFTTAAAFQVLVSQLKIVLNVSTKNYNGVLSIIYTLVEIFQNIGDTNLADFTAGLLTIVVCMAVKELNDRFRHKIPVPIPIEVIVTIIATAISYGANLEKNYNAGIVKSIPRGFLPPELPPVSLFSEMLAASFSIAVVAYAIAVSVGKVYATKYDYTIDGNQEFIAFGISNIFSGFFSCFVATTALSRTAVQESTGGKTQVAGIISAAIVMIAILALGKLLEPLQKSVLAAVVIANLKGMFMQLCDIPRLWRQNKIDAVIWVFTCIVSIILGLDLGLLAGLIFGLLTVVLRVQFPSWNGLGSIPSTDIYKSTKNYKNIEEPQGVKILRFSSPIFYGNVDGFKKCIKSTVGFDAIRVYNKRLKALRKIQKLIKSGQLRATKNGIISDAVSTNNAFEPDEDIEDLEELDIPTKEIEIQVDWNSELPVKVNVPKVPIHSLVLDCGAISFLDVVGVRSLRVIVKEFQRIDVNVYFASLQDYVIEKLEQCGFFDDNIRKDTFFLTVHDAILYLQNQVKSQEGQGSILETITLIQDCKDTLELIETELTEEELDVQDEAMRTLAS
The data set is described as follows: Inhibition of Pendrin (unknown origin) transfected in rat FRT cells assessed as reduction in Cl-/I- ions exchange by YFP fluorescence quenching assay. Type of data set: cell-based.

Data set [2] deals with T2, Pendrin (Homo sapiens) (UniProt O43511).
T2 sequence (whole entry): T1 sequence (O43511 whole entry)
The data set is described as follows: Potency index, ratio of PDSinh-A01 IC50 to test compound IC50 for Pendrin (unknown origin) transfected in rat FRT cells assessed as reduction in Cl-/I- ions exchange by YFP fluorescence quenching assay. Type of data set: cell-based.

For data set [3], the target named is T3, Chloride anion exchanger (Homo sapiens) (UniProt P40879).
T3 sequence (whole entry): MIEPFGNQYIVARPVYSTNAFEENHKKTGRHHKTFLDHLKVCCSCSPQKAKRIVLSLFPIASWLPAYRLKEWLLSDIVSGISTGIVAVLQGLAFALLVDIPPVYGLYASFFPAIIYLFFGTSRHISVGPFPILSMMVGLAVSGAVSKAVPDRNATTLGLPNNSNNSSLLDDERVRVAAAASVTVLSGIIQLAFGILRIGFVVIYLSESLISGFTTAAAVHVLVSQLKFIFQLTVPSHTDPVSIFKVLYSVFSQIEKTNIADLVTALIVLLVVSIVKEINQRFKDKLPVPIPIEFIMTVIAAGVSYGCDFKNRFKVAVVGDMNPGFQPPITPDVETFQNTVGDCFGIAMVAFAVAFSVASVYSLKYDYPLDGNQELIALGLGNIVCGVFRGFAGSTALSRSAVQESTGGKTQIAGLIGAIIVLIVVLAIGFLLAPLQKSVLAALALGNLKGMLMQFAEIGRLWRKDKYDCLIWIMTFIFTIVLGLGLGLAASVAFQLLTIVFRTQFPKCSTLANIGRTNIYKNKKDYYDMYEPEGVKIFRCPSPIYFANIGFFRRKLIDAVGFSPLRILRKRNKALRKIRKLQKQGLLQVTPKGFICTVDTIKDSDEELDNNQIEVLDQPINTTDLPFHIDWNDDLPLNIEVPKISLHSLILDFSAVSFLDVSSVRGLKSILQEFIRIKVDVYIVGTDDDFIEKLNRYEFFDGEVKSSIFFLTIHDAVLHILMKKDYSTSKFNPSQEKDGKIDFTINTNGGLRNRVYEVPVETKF
The data set is described as follows: Inhibition of SLC26A3 (unknown origin) transfected in rat FRT cells at 25 uM by YFP fluorescence quenching assay. Type of data set: cell-based.

In data set [4] the target is T4, Solute carrier family 26 member 6 (Homo sapiens) (UniProt Q9BXS9).
T4 sequence (whole entry): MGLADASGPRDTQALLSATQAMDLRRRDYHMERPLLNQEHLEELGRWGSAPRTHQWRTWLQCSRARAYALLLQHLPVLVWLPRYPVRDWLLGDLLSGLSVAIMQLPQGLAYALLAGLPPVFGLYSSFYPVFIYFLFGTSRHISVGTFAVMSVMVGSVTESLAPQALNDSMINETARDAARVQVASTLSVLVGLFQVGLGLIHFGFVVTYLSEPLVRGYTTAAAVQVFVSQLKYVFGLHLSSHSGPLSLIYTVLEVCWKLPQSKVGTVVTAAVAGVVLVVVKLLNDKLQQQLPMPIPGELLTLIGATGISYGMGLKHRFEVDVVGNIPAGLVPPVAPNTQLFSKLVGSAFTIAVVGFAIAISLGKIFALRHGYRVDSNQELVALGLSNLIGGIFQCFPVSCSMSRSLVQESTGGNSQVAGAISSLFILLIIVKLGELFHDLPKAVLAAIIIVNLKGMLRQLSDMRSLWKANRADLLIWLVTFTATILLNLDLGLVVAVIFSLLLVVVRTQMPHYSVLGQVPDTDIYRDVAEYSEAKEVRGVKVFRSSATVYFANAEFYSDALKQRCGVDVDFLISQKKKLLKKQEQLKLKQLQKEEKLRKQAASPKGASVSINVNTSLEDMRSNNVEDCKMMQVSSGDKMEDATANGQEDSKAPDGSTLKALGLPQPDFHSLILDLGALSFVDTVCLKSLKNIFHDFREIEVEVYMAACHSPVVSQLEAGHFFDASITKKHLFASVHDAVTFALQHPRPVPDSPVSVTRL
The data set is described as follows: Inhibition of SLC26A6 (unknown origin) transfected in rat FRT cells at 25 uM by YFP fluorescence quenching assay. The class given is cell-based.

Data set [5] deals with T2, Pendrin (Homo sapiens). Description: Inhibition of Pendrin (unknown origin) transfected in rat FRT cells at 25 uM by YFP fluorescence quenching assay relative to control. The class given is cell-based.
In data set [6] the target is Cystic fibrosis transmembrane conductance regulator (Homo sapiens) (UniProt P13569). Description: Inhibition of CFTR (unknown origin) transfected in rat FRT cells at 25 uM by YFP fluorescence quenching assay. Type of data set: cell-based.
Cystic fibrosis transmembrane conductance regulator (Homo sapiens), sequence (P13569 whole entry, looked up): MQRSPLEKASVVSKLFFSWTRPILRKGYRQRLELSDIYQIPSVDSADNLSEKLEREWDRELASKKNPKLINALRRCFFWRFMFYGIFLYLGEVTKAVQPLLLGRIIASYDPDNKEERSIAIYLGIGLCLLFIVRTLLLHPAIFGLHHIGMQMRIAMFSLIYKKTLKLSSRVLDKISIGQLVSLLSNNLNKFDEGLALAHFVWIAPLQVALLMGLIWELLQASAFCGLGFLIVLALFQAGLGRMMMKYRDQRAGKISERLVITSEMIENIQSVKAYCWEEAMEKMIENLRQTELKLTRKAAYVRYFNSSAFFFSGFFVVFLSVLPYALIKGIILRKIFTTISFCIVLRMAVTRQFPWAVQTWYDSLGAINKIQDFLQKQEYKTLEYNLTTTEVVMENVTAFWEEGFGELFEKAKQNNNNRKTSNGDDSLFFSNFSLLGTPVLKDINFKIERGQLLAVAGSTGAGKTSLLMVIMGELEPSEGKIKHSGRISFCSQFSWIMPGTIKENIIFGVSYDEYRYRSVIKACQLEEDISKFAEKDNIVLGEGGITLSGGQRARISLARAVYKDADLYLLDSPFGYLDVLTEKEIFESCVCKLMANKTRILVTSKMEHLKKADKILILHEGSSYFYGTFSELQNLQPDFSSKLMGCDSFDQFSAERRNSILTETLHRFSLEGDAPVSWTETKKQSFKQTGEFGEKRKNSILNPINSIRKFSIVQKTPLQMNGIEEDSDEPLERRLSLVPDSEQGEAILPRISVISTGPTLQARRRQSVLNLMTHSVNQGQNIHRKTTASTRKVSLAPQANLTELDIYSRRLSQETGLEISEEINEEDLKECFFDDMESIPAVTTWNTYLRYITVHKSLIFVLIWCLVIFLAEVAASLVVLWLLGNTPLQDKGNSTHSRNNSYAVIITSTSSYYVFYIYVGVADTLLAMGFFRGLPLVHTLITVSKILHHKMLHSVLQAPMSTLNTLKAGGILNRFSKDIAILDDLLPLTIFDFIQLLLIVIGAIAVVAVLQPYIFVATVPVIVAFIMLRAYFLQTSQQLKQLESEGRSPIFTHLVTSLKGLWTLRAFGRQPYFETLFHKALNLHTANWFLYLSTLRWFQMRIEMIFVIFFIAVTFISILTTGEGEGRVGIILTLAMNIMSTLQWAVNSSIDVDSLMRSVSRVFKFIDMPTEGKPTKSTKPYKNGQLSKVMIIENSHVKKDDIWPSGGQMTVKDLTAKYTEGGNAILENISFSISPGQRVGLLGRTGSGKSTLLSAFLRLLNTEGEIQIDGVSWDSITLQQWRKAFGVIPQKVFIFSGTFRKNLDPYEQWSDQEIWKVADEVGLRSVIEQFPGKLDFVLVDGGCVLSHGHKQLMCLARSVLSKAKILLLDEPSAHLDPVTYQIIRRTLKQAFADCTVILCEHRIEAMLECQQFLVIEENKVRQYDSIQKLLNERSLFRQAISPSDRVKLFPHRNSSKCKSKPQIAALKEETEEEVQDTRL
The nature of data set [7]: Cytotoxicity against rat FRT cells assessed as cell viability at 10 uM measured after 24 hrs by Alamar blue dye based assay. Type of data set: toxicity. (In general: The colour change of resazurin is a common sign of viable cells or microbes.)
In data set [8] the target is T5, Solute carrier family 26 member 6 (Homo sapiens, UniProt Q9BXS9).
T5 sequence (Q9BXS9 whole entry): T4 sequence (whole entry)
Description: Inhibition of SLC26A6 (unknown origin) transfected in rat FRT cells by YFP fluorescence quenching assay. Type of data set: cell-based.

Data set [9] is described as follows: Selectivity index, ratio of IC50 for SLC26A6 (unknown origin) transfected in rat FRT cells to IC50 for Pendrin (unknown origin) transfected in rat FRT cells. Type of data set: cell-based.
Data set [10] relates to Mus musculus. The data set is described as follows: Effect on urine volume in mouse model at 10 mg/kg, ip measured for 3 hrs. The class given is functional, organism-based.
Data set [11] concerns Mus musculus. Description: Effect on osmolality in mouse model at 10 mg/kg, ip measured for 3 hrs. Type of data set: functional, organism-based.
The subject of data set [12] is Mus musculus. Description: Potentiation of Furosemide-induced diuretic effect in mouse model at 10 mg/kg, ip measured for 3 hrs relative to control. The class given is functional.
Data set [13] concerns Mus musculus. Description: Effect on osmolality in mouse model at 10 mg/kg, ip measured for 3 hrs in presence of Furosemide. Type of data set: functional, organism-based.
For data set [14], the target named is T1, Pendrin. Description: Inhibition of Pendrin (unknown origin).

Calls of active or inactive are those of the source. The calls are words filed in the database; no cut-off is given here.

As a reminder, the IC50 is the concentration that inhibits the measured activity by half. What is called inhibition is the change of the read-out against control, counted positive when it falls.

On to `Cc1oc2ccc(OCc3ccc(Cl)cc3)cc2c1C(=O)O`, for which, in [1], the IC50 was determined as 5 µM.
On the same count and under the same terms, the result for `Cc1oc2ccc(OCc3cccc(Br)c3)cc2c1C(=O)O` reads 8.2 µM.
Consider `Cc1oc2ccc(OCc3ccc(Br)cc3)cc2c1C(=O)O`, for which the IC50 in data set [1] stood at 4.1 µM. In data set [2], the Ratio IC50 was 3.
For `Cc1oc2ccc(OCc3cccc(Cl)c3)cc2c1C(=O)O`, the half-maximal inhibitory concentration (IC50) in data set [1] was 4.8 µM.
For `Cc1oc2ccc(OCc3ccccc3)cc2c1C(=O)O`, the IC50 in data set [1] came out at 3.1 µM.
As for `Cc1oc2ccc(OCc3ccccc3Cl)cc2c1C(=O)O`, the inhibition entry in data set [3] is “inactive”. Further, the inhibition result was “Active; Exhibited Minimal Inhibition” in data set [4], 100% in data set [5] and “Active; Exhibited Minimal Effect” in [6]. Also, the Activity entry in data set [7] is “Non-toxic”.
Take `Cc1oc2ccc(OCc3cc(F)ccc3Cl)cc2c1C(=O)O`: the figures for the IC50 in data set [1] and in data set [8] were 0.48 µM and 10 µM, respectively. For the same compound, the inhibition entry in data set [3] was “inactive”. For the same compound, the inhibition result in data set [4] is “Active”. Moreover, the results for the inhibition in data set [5] and in data set [6] were 100% and “Active; Exhibited Minimal Effect”, respectively. Besides, the Ratio IC50 in data set [9] turned out to be 20. The Activity entry was “Non-toxic” in [7]; “No effect” in data set [10]; “No effect” in [11]; 45% in data set [12]; “No effect” in data set [13].
Take `Cc1ccccc1COc1ccc2oc(C)c(C(=O)O)c2c1`: the IC50 in [1] turned out to be 1.44 µM.
Consider `Cn1nc(COc2cccc(F)c2)c2c1CCN(C(=O)Nc1ccc(Cl)cc1)C2`, for which, in data set [14], the IC50 stood at 12.5 µM.

Values taken from ChEMBL document CHEMBL6074681, “High potency 3-carboxy-2-methylbenzofuran pendrin inhibitors as novel diuretics” (Eur J Med Chem, 2025).
